Among the data in patent publication US9451775B2, “Heterocyclic compounds as pesticides” (Bayer Intellectual Property GmbH, priority 2008, dated 2016) are chromatographic logP and pest or weed control values, retold here.

A short description of series [1]: logP determination by HPLC (formic acid method). The conditions noted are these: reversed-phase HPLC column (C18), pH 3.4, HPLC on reversed-phase column (C18), acidic range (pH 3.4), 55° C.; read-out: logP (HCOOH). It is filed as physicochemical. Put shortly:
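Reversed-phase C18 HPLC at 55 °C, pH 3.4, with a 4.25 min gradient from 10% to 95% acetonitrile (formic acid-modified water/acetonitrile phases). logP was derived from retention time by linear interpolation between unbranched alkan-2-ones (C3-C16) of known logP.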

Series [2] concerns green peach aphid (Myzus persicae). Nature of the series: Myzus test (spray treatment). Particulars: foliar, application rate of 500 g/ha, sprayed Chinese cabbage leaf discs, read-out: activity (effect in %, aphids killed). It is filed as in vivo. The protocol: Myzus Test (Spray Treatment)
• Solvents: 78.0 parts by weight of acetone • 1.5 parts by weight of dimethylformamide • Emulsifier: 0.5 part by weight of alkylaryl polyglycol ether
To produce a suitable preparation of active compound, 1 part by weight of active compound is mixed with the stated amounts of solvents and emulsifier, and the concentrate is diluted with emulsifier-containing water to the desired concentration.
Discs of leaves of Chinese cabbage (Brassica pekinensis) which are heavily infested by all stages of the green peach aphid (Myzus persicae) are sprayed with an active compound preparation of the desired concentration.
After the desired period of time, the effect in % is determined. 100% means that all aphids have been killed; 0% means that none of the aphids have been killed.

For `Cc1nc(-c2cccnc2)sc1-c1ccn(-c2nnc(C(F)F)s2)n1` [compound 85], the chromatographic logP in series [1] stood at 2.8. For the same molecule, the pest or weed control at 500 g/ha in series [2] was not below 80%.
For the molecule `Cc1nc(-c2cccnc2)sc1-c1ccn(-c2nnc(C3CC3)s2)n1` [compound 86], the chromatographic logP in series [1] is 2.72. For the same molecule, the pest or weed control at 500 g/ha in series [2] was not below 80%.
For `Cc1nc(-c2cccnc2)sc1-c1ccn(-c2nc(Cl)cs2)n1` [compound 87], in that order: 3.47 and not below 80%.
In the case of `c1cnc(-c2nccc(-c3cnc(-c4cccnc4)s3)n2)nc1` [compound 88], the chromatographic logP in series [1] is 1.05. In series [2], the pest or weed control at 500 g/ha is not below 80%.
On the same counts, the results for `c1cnc(-n2ccc(-c3cnc(-c4cccnc4)s3)n2)nc1` [compound 89] are 1.48 and not below 80%.
On the same counts, the results for `Cc1nc(-c2cccnc2)sc1-c1ccncn1` [compound 90] are 1.39 and not below 80%.
On the same counts, the results for `Cc1nc(-c2cccnc2)sc1-c1nc(-c2nnc(C(F)(F)F)n2C)no1` [compound 91] are 2.41 and not below 80%.
Regarding `Cc1nc(-c2cccnc2)sc1-c1ccn(-c2cccc(Cl)n2)n1` [compound 92], in series [1], the chromatographic logP stood at 3.84. The pest or weed control at 500 g/ha in series [2] was not below 80%.
For `Cc1nc(-c2cccnc2)sc1-c1nc(N)nc(C(C)F)n1` (stereo not shown) [compound 93], in that order: 1.86 and not below 80%.
For `Cc1nc(-c2cccnc2)sc1-c1nccc(C(F)(F)F)n1` [compound 94], in that order: 3.14 and not below 80%.
On the same counts, the results for `COC(=O)c1cccc(-c2sc(-c3cccnc3)nc2C)n1` [compound 95] are 2.03 and not below 80%.
For `Cc1nc(-c2cccnc2)sc1-c1cccc(N2CCOCC2)n1` [compound 96], the chromatographic logP in series [1] was 2.58. In addition, the pest or weed control at 500 g/ha in series [2] is not below 80%.
Take `Cc1nc(-c2cccnc2)sc1-c1cccc(-n2cccn2)n1` [compound 97]: the chromatographic logP in series [1] worked out at 2.93. The pest or weed control at 500 g/ha in series [2] is not below 80%.
Consider `Cc1nc(-c2cccnc2)sc1-c1cccc(N2CC(C)OC(C)C2)n1` (stereo not shown) [compound 98], for which the chromatographic logP in series [1] amounted to 3.55. In series [2], the pest or weed control at 500 g/ha is not below 80%.
On the same counts, the results for `Cc1nc(-c2cccnc2)sc1-c1ccc(C(F)(F)F)cn1` [compound 99] are 3.14 and not below 80%.
On the same counts, the results for `COC(=O)c1oc(-c2sc(-c3cccnc3)nc2C)nc1C` [compound 100] are 2.55 and not below 80%.
On to `Cc1nc(-c2cccnc2)sc1-c1cccc(C2=NOCCO2)c1` [compound 101], for which the chromatographic logP in series [1] came out at 2.42. In addition, in series [2], the pest or weed control at 500 g/ha is not below 80%.
For `Cc1nc(-c2cccnc2)sc1-c1nnc(C(F)(F)F)s1` [compound 102], in that order: 2.85 and not below 80%.
On the same counts, the results for `Cc1nc(-c2cccnc2)sc1-c1ccn(C(=O)NC(C)C)n1` [compound 103] are 2.55 and not below 80%.
With `Cc1nc(-c2cccnc2)sc1-c1ccn(C(=S)NC2CC2)n1` [compound 104], the chromatographic logP in series [1] is 3.23. Besides, the pest or weed control at 500 g/ha in series [2] is not below 80%.
On the same counts, the results for `Cc1nc(-c2cccnc2)sc1-c1ccnc(CC2CC2)n1` [compound 105] are 2.69 and not below 80%.
On to `Cc1nc(-c2cccnc2)sc1-c1ccn(-c2nnc(C3CCC3)s2)n1` [compound 106], for which, in series [1], the chromatographic logP came out at 3.42. Also, the pest or weed control at 500 g/ha in series [2] was not below 80%.
For `Cc1nc(-c2cccnc2)sc1-c1ccn(-c2nnc(C3CCCC3)s2)n1` [compound 107], in that order: 3.85 and not below 80%.
For `COc1nc(-n2ccc(-c3sc(-c4cccnc4)nc3C)n2)nc2c1CCC2` [compound 108], in that order: 3.18 and not below 80%.
On the same counts, the results for `Cc1nc(-c2cccnc2)sc1-c1ccnc(C(F)(F)F)n1` [compound 109] are 2.72 and not below 80%.
For the molecule `Cc1nc(-c2cccnc2)sc1-c1ccn(-c2nnc(C(F)Cl)s2)n1` (stereo not shown) [compound 110], the chromatographic logP in series [1] turned out to be 3.24. Also, the pest or weed control at 500 g/ha in series [2] is not below 80%.
On the same counts, the results for `Cc1nc(-c2cccnc2)sc1-c1cc(C(F)(F)F)ncn1` [compound 111] are 2.8 and not below 80%.
On the same counts, the results for `COC(=O)c1nc(-c2sc(-c3cccnc3)nc2C)ccc1Cl` [compound 112] are 2.64 and not below 80%.
In the case of `COCC(C)NC(=O)n1ccc(-c2sc(-c3cccnc3)nc2C)n1` (stereo not shown) [compound 113], the chromatographic logP in series [1] is 2.23. Further, the pest or weed control at 500 g/ha in series [2] was not below 80%.
For `CCCOCC(C)NC(=O)n1ccc(-c2sc(-c3cccnc3)nc2C)n1` (stereo not shown) [compound 114], in that order: 3.27 and not below 80%.
On the same counts, the results for `CCOCCNC(=O)n1ccc(-c2sc(-c3cccnc3)nc2C)n1` [compound 115] are 2.2 and not below 80%.
For `CCC(COC)NC(=O)n1ccc(-c2sc(-c3cccnc3)nc2C)n1` (stereo not shown) [compound 116], in that order: 2.61 and not below 80%.
In the case of `Cc1nc(-c2cccnc2)sc1-c1ccn(C(=O)NC(C)COC(C)C)n1` (stereo not shown) [compound 117], the chromatographic logP in series [1] worked out at 3.18. The pest or weed control at 500 g/ha in series [2] is not below 80%.
For `CCOCC(C)NC(=O)n1ccc(-c2sc(-c3cccnc3)nc2C)n1` (stereo not shown) [compound 118], in that order: 2.69 and not below 80%.
Consider `Cc1nc(-c2cccnc2)sc1-c1ccn(C(=O)NC(C)(C)C)n1` [compound 119], for which the chromatographic logP in series [1] was 3.23. Further, the pest or weed control at 500 g/ha in series [2] was not below 80%.
With `Cc1nc(-c2cccnc2)sc1-c1ccn(C(=O)NCC(C)C)n1` [compound 120], the chromatographic logP in series [1] came to 2.89. Besides, in series [2], the pest or weed control at 500 g/ha was not below 80%.
As for `CCNC(=O)n1ccc(-c2sc(-c3cccnc3)nc2C)n1` [compound 121], the chromatographic logP in series [1] was 2.05. Besides, the pest or weed control at 500 g/ha in series [2] was not below 80%.
In the case of `Cc1nc(-c2cccnc2)sc1-c1ccn(C(=O)NC2CCCCC2)n1` [compound 122], the chromatographic logP in series [1] worked out at 3.56. Besides, in series [2], the pest or weed control at 500 g/ha was not below 80%.
For `CCOCCCNC(=O)n1ccc(-c2sc(-c3cccnc3)nc2C)n1` [compound 123], in that order: 2.46 and not below 80%.
As to `Cc1nc(-c2cccnc2)sc1-c1ccn(C(=O)NC2CCCC2)n1` [compound 124], in series [1], the chromatographic logP was 3.09. Further, the pest or weed control at 500 g/ha in series [2] is not below 80%.
For `Cc1nc(-c2cccnc2)sc1-c1ccn(C(=O)NC2CC2)n1` [compound 125], in that order: 2.08 and not below 80%.
For `COCCNC(=O)n1ccc(-c2sc(-c3cccnc3)nc2C)n1` [compound 126], in that order: 1.87 and not below 80%.
On the same counts, the results for `Cc1nc(-c2cccnc2)sc1-c1ccn(C(=O)NCC2CC2)n1` [compound 127] are 2.57 and not below 80%.
For the molecule `Cc1nc(-c2cccnc2)sc1-c1ccn(C(=O)NCC(F)(F)F)n1` [compound 128], the chromatographic logP in series [1] was determined as 2.38. The pest or weed control at 500 g/ha in series [2] was not below 80%.
On the same counts, the results for `CSCCNC(=O)n1ccc(-c2sc(-c3cccnc3)nc2C)n1` [compound 129] are 2.34 and not below 80%.
`Cc1nc(-c2cccnc2)sc1-c1ccn(C(=O)NC(C)(C)C(C)C)n1` [compound 130]: in series [1], the chromatographic logP stood at 4.17. Also, the pest or weed control at 500 g/ha in series [2] is not below 80%.
For `CCC(CC#N)NC(=O)n1ccc(-c2sc(-c3cccnc3)nc2C)n1` (stereo not shown) [compound 131], in that order: 2.14 and not below 80%.
On the same counts, the results for `CCCNC(=O)n1ccc(-c2sc(-c3cccnc3)nc2C)n1` [compound 132] are 2.46 and not below 80%.
On the same counts, the results for `COC(C)(C)CNC(=O)n1ccc(-c2sc(-c3cccnc3)nc2C)n1` [compound 133] are 2.53 and not below 80%.
With `C#CC(C)(C)NC(=O)n1ccc(-c2sc(-c3cccnc3)nc2C)n1` [compound 134], the chromatographic logP in series [1] was determined as 2.69. Moreover, the pest or weed control at 500 g/ha in series [2] was not below 80%.
On the same counts, the results for `COCCCNC(=S)n1ccc(-c2sc(-c3cccnc3)nc2C)n1` [compound 135] are 3.28 and not below 80%.
For `Cc1nc(-c2cccnc2)sc1-c1ccn(C(=S)NC(C)c2ccccc2)n1` (stereo not shown) [compound 136], in that order: 4.41 and not below 80%.
Regarding `CNC(=S)n1ccc(-c2sc(-c3cccnc3)nc2C)n1` [compound 137], the chromatographic logP in series [1] stood at 2.65. Further, the pest or weed control at 500 g/ha in series [2] was not below 80%.
